Data on 7 compounds can be found in patent publication US20200354426A1 (MEDIMMUNE LIMITED, priority 2016, published 2020).

Numbered stars: 1 amine (or outer) side, 2 acyl side, 3 side chain; on linkers, the order of the positions; unused ones are H or OH. Side chains are listed from the residue outwards. Peptide text beside a SMILES is read from it. * marks the point of attachment. γGlu = O=C(O)[C@H](CCC(=O)[*:2])N[*:1]; Palmitoyl = CCCCCCCCCCCCCCCC(=O)*; Ahx = NCCCCCC(=O)O

What all share (experiment): cAMP activity assay in assay medium (assay 1)
Common to all, as to type: cell-based

The target in one assay is T1, Human GIPr (Homo sapiens, UniProt P48546).
T1 construct: expressed in transfected cells
T1 sequence (P48546 22-466): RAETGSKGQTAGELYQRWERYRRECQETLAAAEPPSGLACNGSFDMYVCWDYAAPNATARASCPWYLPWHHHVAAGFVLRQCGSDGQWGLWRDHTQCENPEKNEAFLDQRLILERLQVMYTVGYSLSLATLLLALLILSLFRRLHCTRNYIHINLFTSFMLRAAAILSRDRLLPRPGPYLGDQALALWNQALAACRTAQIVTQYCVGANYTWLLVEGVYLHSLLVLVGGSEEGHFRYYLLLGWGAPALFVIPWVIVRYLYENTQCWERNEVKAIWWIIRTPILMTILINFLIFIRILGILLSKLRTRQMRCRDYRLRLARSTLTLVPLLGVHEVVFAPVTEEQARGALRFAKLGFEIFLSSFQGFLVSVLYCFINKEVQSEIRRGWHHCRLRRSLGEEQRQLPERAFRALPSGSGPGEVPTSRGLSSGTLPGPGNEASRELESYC
The following applies: assay medium; Table 4; read-out: hGIPR EC50. An excerpt: (§1) Biological Activity of Peptides in Cell-Based cAMP Activity Assay (Assay 1):
(§2) All sample dilutions were made in duplicate.

Another assay has as its target T2, Human GlucR (Homo sapiens, UniProt P47871).
T2 construct: expressed in transfected cells
The following applies: assay medium; Table 4; read-out: hGlucR EC50.
Text: as §1, §2

A further assay deals with Human GLP1R (Homo sapiens, UniProt P43220). Details: expressed in transfected cells. The following applies: assay medium; Table 4; read-out: hGLP1R EC50.
Human GLP1R, sequence (P43220 24-463): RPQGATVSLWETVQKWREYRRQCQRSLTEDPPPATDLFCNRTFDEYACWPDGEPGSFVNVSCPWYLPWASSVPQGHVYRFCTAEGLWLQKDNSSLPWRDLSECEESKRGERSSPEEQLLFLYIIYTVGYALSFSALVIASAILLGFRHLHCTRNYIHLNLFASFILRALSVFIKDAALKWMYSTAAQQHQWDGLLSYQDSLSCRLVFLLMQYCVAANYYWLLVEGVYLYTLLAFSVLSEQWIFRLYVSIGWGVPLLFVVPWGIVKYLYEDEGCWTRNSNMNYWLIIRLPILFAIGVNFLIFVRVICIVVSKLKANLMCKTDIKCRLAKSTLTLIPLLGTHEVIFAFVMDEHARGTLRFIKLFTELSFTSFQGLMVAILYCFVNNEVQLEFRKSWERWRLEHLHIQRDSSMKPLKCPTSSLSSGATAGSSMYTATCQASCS
Text: as §1, §2

T2 sequence (P47871 26-477): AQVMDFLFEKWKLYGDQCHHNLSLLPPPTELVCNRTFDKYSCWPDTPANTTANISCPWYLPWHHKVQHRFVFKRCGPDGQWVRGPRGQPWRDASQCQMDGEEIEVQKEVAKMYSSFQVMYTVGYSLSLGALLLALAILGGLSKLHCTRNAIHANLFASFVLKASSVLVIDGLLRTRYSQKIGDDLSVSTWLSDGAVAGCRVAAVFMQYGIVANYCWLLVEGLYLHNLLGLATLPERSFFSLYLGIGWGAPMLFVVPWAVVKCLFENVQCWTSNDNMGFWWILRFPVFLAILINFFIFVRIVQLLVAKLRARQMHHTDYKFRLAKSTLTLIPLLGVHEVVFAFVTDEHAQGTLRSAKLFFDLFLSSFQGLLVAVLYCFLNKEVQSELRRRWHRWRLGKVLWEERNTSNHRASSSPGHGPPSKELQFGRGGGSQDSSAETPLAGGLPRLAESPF

The EC50 is the midpoint of the concentration-response curve. As to `CCCCCCCCCCCCCCCC(=O)N[C@@H](CCC(=O)NCCCC[C@H](NC(=O)[C@H](CCCNC(=N)N)NC(=O)[C@H](CO)NC(=O)[C@H](Cc1ccc(O)cc1)NC(=O)[C@H](CC(=O)O)NC(=O)[C@H](CO)NC(=O)[C@@H](NC(=O)[C@H](Cc1ccccc1)NC(=O)[C@@H](NC(=O)CNC(=O)[C@H](CCC(N)=O)NC(=O)[C@H](CO)NC(=O)[C@@H](N)Cc1c[nH]cn1)[C@@H](C)O)[C@@H](C)O)C(=O)N[C@@H](CC(C)C)C(=O)N[C@@H](CC(=O)O)C(=O)N[C@@H](CO)C(=O)N[C@@H](CCC(=O)O)C(=O)N[C@@H](CCCNC(=N)N)C(=O)N[C@@H](C)C(=O)N[C@@H](CCCNC(=N)N)C(=O)N[C@@H](CC(=O)O)C(=O)N[C@@H](Cc1ccccc1)C(=O)N[C@H](C(=O)N[C@@H](C)C(=O)N[C@@H](Cc1c[nH]c2ccccc12)C(=O)N[C@@H](CC(C)C)C(=O)N[C@H](C(=O)N[C@@H](C)C(=O)NCC(=O)NCC(N)=O)C(C)C)C(C)C)C(=O)O` [g820] (H-HSQGTFTSDYSRK([γGlu-Palmitoyl])LDSERARDFVAWLVAGG-NH2; N-terminus assumed), the concentration giving a half-maximal response (EC50) on Human GIPr is 71.1 nM; on Human GlucR, 0.0117 nM; on Human GLP1R, 0.0339 nM.
For `CCCCCCCCCCCCCCCC(=O)N[C@@H](CCC(=O)NCCCC[C@H](NC(=O)[C@H](CO)NC(=O)[C@H](CC(=O)O)NC(=O)[C@H](CC(C)C)NC(=O)[C@H](Cc1ccc(O)cc1)NC(=O)[C@H](CCCNC(=N)N)NC(=O)[C@H](CO)NC(=O)[C@H](Cc1ccc(O)cc1)NC(=O)[C@H](CC(=O)O)NC(=O)[C@H](CO)NC(=O)[C@@H](NC(=O)[C@H](Cc1ccccc1)NC(=O)[C@@H](NC(=O)CNC(=O)[C@H](CCC(N)=O)NC(=O)[C@H](CO)NC(=O)[C@@H](N)Cc1c[nH]cn1)[C@@H](C)O)[C@@H](C)O)C(=O)N[C@@H](CCCNC(=N)N)C(=O)N[C@@H](C)C(=O)N[C@@H](CCCNC(=N)N)C(=O)N[C@@H](CC(=O)O)C(=O)N[C@@H](Cc1ccccc1)C(=O)N[C@H](C(=O)N[C@@H](CCC(=O)O)C(=O)N[C@@H](Cc1c[nH]c2ccccc12)C(=O)N[C@@H](CC(C)C)C(=O)N[C@H](C(=O)N[C@@H](C)C(=O)NCC(=O)NCC(N)=O)C(C)C)C(C)C)C(=O)O` [g823] (H-HSQGTFTSDYSRYLDSK([γGlu-Palmitoyl])RARDFVEWLVAGG-NH2; N-terminus assumed), in that order: 84.2 nM, 0.00948 nM and 0.0973 nM.
Consider `CCCCCCCCCCCCCCCC(=O)N[C@@H](CCC(=O)NCCCC[C@H](NC(=O)[C@H](Cc1ccc(O)cc1)NC(=O)[C@H](CCCCN)NC(=O)[C@H](CO)NC(=O)[C@H](Cc1ccc(O)cc1)NC(=O)[C@H](CC(=O)O)NC(=O)[C@H](CO)NC(=O)[C@@H](NC(=O)[C@H](Cc1ccccc1)NC(=O)[C@@H](NC(=O)CNC(=O)[C@H](CCC(N)=O)NC(=O)[C@H](CO)NC(=O)[C@@H](N)Cc1c[nH]cn1)[C@@H](C)O)[C@@H](C)O)C(=O)N[C@@H](CC(=O)O)C(=O)N[C@@H](CO)C(=O)N[C@@H](CCCNC(=N)N)C(=O)N[C@@H](CCCNC(=N)N)C(=O)N[C@@H](C)C(=O)N[C@@H](CCCNC(=N)N)C(=O)N[C@@H](CC(=O)O)C(=O)N[C@@H](Cc1ccccc1)C(=O)N[C@H](C(=O)N[C@@H](CCC(=O)O)C(=O)N[C@@H](Cc1c[nH]c2ccccc12)C(=O)N[C@@H](CC(C)C)C(=O)N[C@@H](CCC(=O)O)C(=O)N[C@@H](C)C(=O)NCC(=O)NCC(N)=O)C(C)C)C(=O)O` [g824] (H-HSQGTFTSDYSKYK([γGlu-Palmitoyl])DSRRARDFVEWLEAGG-NH2; N-terminus assumed), for which the EC50 was found to be 57.4 nM on Human GIPr, 0.00105 nM at Human GlucR and 0.0471 nM at Human GLP1R.
For `CCCCCCCCCCCCCCCC(=O)NCCCCCC(=O)NCCCC[C@H](NC(=O)[C@H](CO)NC(=O)[C@H](CC(=O)O)NC(=O)[C@H](CC(C)C)NC(=O)[C@H](Cc1ccc(O)cc1)NC(=O)[C@H](CCC(=O)O)NC(=O)[C@H](CO)NC(=O)[C@H](Cc1ccc(O)cc1)NC(=O)[C@H](CC(=O)O)NC(=O)[C@H](CO)NC(=O)[C@@H](NC(=O)[C@H](Cc1ccccc1)NC(=O)[C@@H](NC(=O)CNC(=O)[C@H](CCC(N)=O)NC(=O)[C@H](CO)NC(=O)[C@@H](N)Cc1c[nH]cn1)[C@@H](C)O)[C@@H](C)O)C(=O)N[C@@H](CCCNC(=N)N)C(=O)N[C@@H](C)C(=O)N[C@@H](CCCNC(=N)N)C(=O)N[C@@H](CC(=O)O)C(=O)N[C@@H](Cc1ccccc1)C(=O)N[C@H](C(=O)N[C@@H](C)C(=O)N[C@@H](Cc1c[nH]c2ccccc12)C(=O)N[C@@H](CC(C)C)C(=O)N[C@@H](CCC(=O)O)C(=O)N[C@@H](CCCNC(=N)N)C(=O)NCC(=O)NCC(=O)O)C(C)C` [g826] (H-HSQGTFTSDYSEYLDSK([Ahx-Palmitoyl])RARDFVAWLERGG-OH; N-terminus assumed), in that order: 58 nM, 0.00423 nM and 0.0293 nM.
For `CCCCCCCCCCCCCCCC(=O)N[C@@H](CCC(=O)NCCCC[C@H](NC(=O)[C@H](CO)NC(=O)[C@H](CC(=O)O)NC(=O)[C@H](CC(C)C)NC(=O)[C@H](Cc1ccc(O)cc1)NC(=O)[C@H](CCC(=O)O)NC(=O)[C@H](CO)NC(=O)[C@H](Cc1ccc(O)cc1)NC(=O)[C@H](CC(=O)O)NC(=O)[C@H](CO)NC(=O)[C@@H](NC(=O)[C@H](Cc1ccccc1)NC(=O)[C@@H](NC(=O)CNC(=O)[C@H](CCC(N)=O)NC(=O)[C@H](CO)NC(=O)[C@@H](N)Cc1c[nH]cn1)[C@@H](C)O)[C@@H](C)O)C(=O)N[C@@H](CCCNC(=N)N)C(=O)N[C@@H](C)C(=O)N[C@@H](CCCNC(=N)N)C(=O)N[C@@H](CC(=O)O)C(=O)N[C@@H](Cc1ccccc1)C(=O)N[C@H](C(=O)N[C@@H](CCC(=O)O)C(=O)N[C@@H](Cc1c[nH]c2ccccc12)C(=O)N[C@@H](CC(C)C)C(=O)N[C@H](C(=O)N[C@@H](C)C(=O)NCC(=O)NCC(N)=O)C(C)C)C(C)C)C(=O)O` [g835] (H-HSQGTFTSDYSEYLDSK([γGlu-Palmitoyl])RARDFVEWLVAGG-NH2; N-terminus assumed), in that order: 97.2 nM, 0.424 nM and 0.191 nM.
For `CCCCCCCCCCCCCCCC(=O)N[C@@H](CCC(=O)NCCCC[C@H](NC(=O)[C@H](Cc1ccc(O)cc1)NC(=O)[C@H](CCCCN)NC(=O)[C@H](CO)NC(=O)[C@H](Cc1ccc(O)cc1)NC(=O)[C@H](CC(=O)O)NC(=O)[C@H](CO)NC(=O)[C@@H](NC(=O)[C@H](Cc1ccccc1)NC(=O)[C@@H](NC(=O)CNC(=O)[C@H](CCC(N)=O)NC(=O)[C@H](CO)NC(=O)[C@@H](N)Cc1c[nH]cn1)[C@@H](C)O)[C@@H](C)O)C(=O)N[C@@H](CC(=O)O)C(=O)N[C@@H](CO)C(=O)N[C@@H](CCC(=O)O)C(=O)N[C@@H](CCCNC(=N)N)C(=O)N[C@@H](C)C(=O)N[C@@H](CCCNC(=N)N)C(=O)N[C@@H](CC(=O)O)C(=O)N[C@@H](Cc1ccccc1)C(=O)N[C@H](C(=O)N[C@@H](CCC(=O)O)C(=O)N[C@@H](Cc1c[nH]c2ccccc12)C(=O)N[C@@H](CC(C)C)C(=O)N[C@@H](CCC(=O)O)C(=O)N[C@@H](C)C(=O)NCC(=O)NCC(N)=O)C(C)C)C(=O)O` [g836] (H-HSQGTFTSDYSKYK([γGlu-Palmitoyl])DSERARDFVEWLEAGG-NH2; N-terminus assumed), in that order: 100 nM, 0.0155 nM and 0.124 nM.
With `CCCCCCCCCCCCCCCC(=O)N[C@@H](CCC(=O)NCCCC[C@H](NC(=O)[C@H](CO)NC(=O)[C@H](CC(=O)O)NC(=O)[C@H](CC(C)C)NC(=O)[C@H](Cc1ccc(O)cc1)NC(=O)[C@H](CCC(=O)O)NC(=O)[C@H](CO)NC(=O)[C@H](Cc1ccc(O)cc1)NC(=O)[C@H](CC(=O)O)NC(=O)[C@H](CO)NC(=O)[C@@H](NC(=O)[C@H](Cc1ccccc1)NC(=O)[C@@H](NC(=O)CNC(=O)[C@H](CCC(N)=O)NC(=O)[C@H](CO)NC(=O)[C@@H](N)Cc1c[nH]cn1)[C@@H](C)O)[C@@H](C)O)C(=O)N[C@@H](CCCNC(=N)N)C(=O)N[C@@H](C)C(=O)N[C@@H](CCCNC(=N)N)C(=O)N[C@@H](CC(=O)O)C(=O)N[C@@H](Cc1ccccc1)C(=O)N[C@H](C(=O)N[C@@H](C)C(=O)N[C@@H](Cc1c[nH]c2ccccc12)C(=O)N[C@@H](CC(C)C)C(=O)N[C@@H](CCC(=O)O)C(=O)N[C@@H](C)C(=O)NCC(=O)NCC(N)=O)C(C)C)C(=O)O` [g837] (H-HSQGTFTSDYSEYLDSK([γGlu-Palmitoyl])RARDFVAWLEAGG-NH2; N-terminus assumed), the EC50 at Human GIPr is 114 nM; at Human GlucR it was 0.213 nM; on Human GLP1R, 0.467 nM.
